These are literature values, as cited in the PKSmart pharmacokinetics tables (Seal et al. 2025).

A short description of this series: Lombardo, Berellini, Obach 2018, Drug Metab Dispos 46:1466, doi 10.1124/dmd.118.082966. The conditions noted are these: human; for MRT / Vd / clearance / half-life: in vivo, iv; for fraction unbound: plasma.

Where a SMILES comes first, the peptide text is derived from it.

`Cc1c[nH]c2c(O)cc3c(c12)[C@H](CCl)CN3C(=O)c1cc2cc(NC(=O)Nc3ccc4[nH]c(C(=O)N5C[C@@H](CCl)c6c5cc(O)c5[nH]cc(C)c65)cc4c3)ccc2[nH]1`: the MRT is 1.7 h, the distribution volume (Vd) was 0.05 L/kg, the clearance is 0.5 mL/min/kg and the half-life is 1.6 h.

Consider `CC(O)C(CO)NC(=O)C1CSSCC(NC(=O)C(N)Cc2ccccc2)C(=O)NC(Cc2ccccc2)C(=O)NC(Cc2c[nH]c3ccccc23)C(=O)NC(CCCCN)C(=O)NC(C(C)O)C(=O)N1` (stereo not drawn), for which the MRT is 1.3 h, the Vd is 0.19 L/kg, the clearance was 2.38 mL/min/kg and the half-life is 1.7 h. In addition, the fraction unbound was 0.35.

With `Cc1cc(NC(=O)C2C(=O)c3ccccc3S(=O)(=O)N2C)no1` (stereo not drawn), the MRT was 44 h, the Vd is 0.19 L/kg, the clearance was 0.07 mL/min/kg and the half-life is 33 h.

Regarding `CC(=O)NC(CO)C(=O)NC(CC(=O)O)C(=O)NC(CCCCN)C(=O)N1CCCC1C(=O)O` (stereo not drawn) (Ac-SDKP-OH; configuration not given here), the clearance is 18.7 mL/min/kg and the half-life was 0.08 h.

With `NC(C(=O)NC1C(=O)N2C(C(=O)O)=C(CSc3c[nH]nn3)CS[C@H]12)c1ccc(O)cc1` (stereo partly drawn), the mean residence time (MRT) is 1.1 h, the distribution volume (Vd) is 0.22 L/kg, the clearance was 3.3 mL/min/kg and the half-life is 1.2 h.

Consider `COc1ccccc1Oc1c(NS(=O)(=O)c2ccc(C(C)(C)C)cc2)nc(-c2ncccn2)nc1OCCO`, for which the mean residence time MRT is 2.3 h, the volume of distribution (Vd) is 0.29 L/kg, the clearance is 2.1 mL/min/kg and the half-life is 4.1 h. For the same compound, the fraction unbound is 0.037.

With `CO[C@]1(NC(=O)CSC(F)F)C(=O)N2C(C(=O)O)=C(CSc3nnnn3CCO)CO[C@@H]21`, the MRT was 0.77 h, the Vd is 0.19 L/kg, the half-life was 0.6 h and the unbound share (fraction unbound) is 0.64.

`COC(=O)c1ccc2c(C(=Nc3ccc(N(C)C(=O)CN4CCN(C)CC4)cc3)c3ccccc3)c(O)[nH]c2c1`: the MRT is 12.6 h, the Vd is 15 L/kg, the clearance is 19.9 mL/min/kg and the half-life is 9.5 h. The fraction unbound was 0.02.

For `Nc1nc2c(Cc3cccnc3)c[nH]c2c(=O)[nH]1`, the mean residence time MRT was 3.2 h, the distribution volume (Vd) was 1.2 L/kg, the clearance is 6.2 mL/min/kg and the half-life was 3 h. The unbound share (fraction unbound) is 0.86.

`COc1ccnc(C[S+](O)c2nc3cc(-n4cccc4)ccc3[n-]2)c1C` (stereo not drawn): the mean residence time MRT was 4.32 h, the volume of distribution (Vd) is 0.19 L/kg, the clearance was 0.73 mL/min/kg and the half-life is 3.59 h.

With `O=C(O)C1N=C(c2ccccc2)c2cc(Cl)ccc2NC1=O` (stereo not drawn), the mean residence time (MRT) was 3 h, the Vd is 0.2 L/kg, the clearance was 1.1 mL/min/kg and the half-life is 2.4 h.

For `N=C(N)c1ccc(C(=O)NC(Cc2ccc(O)cc2)C(=O)N2CCC(OCC(=O)O)CC2)cc1` (stereo not drawn), the mean residence time MRT was 2.5 h, the volume of distribution (Vd) is 0.29 L/kg, the half-life is 2.1 h and the free fraction (fraction unbound) was 0.94.

Turning to `COC(=O)Nc1nc2cc(C(=O)c3ccccc3)ccc2[nH]1`, the MRT is 1.3 h, the Vd is 1.2 L/kg, the clearance is 15 mL/min/kg and the half-life was 1.1 h.

On to `CN(C)CCC(c1ccc(Cl)cc1)c1ccccn1` (stereo not drawn), for which the MRT is 22 h, the Vd was 3.3 L/kg and the clearance is 2.5 mL/min/kg.

`O=C(/C=C/c1ccc(O)c2c1C(C(=O)OC(Cc1ccc(O)c(O)c1)C(=O)O)[C@@H](c1ccc(O)c(O)c1)O2)OC(Cc1ccc(O)c(O)c1)C(=O)O` (stereo partly drawn): the mean residence time (MRT) is 0.42 h, the Vd was 0.14 L/kg, the clearance is 7.17 mL/min/kg and the half-life was 0.29 h. Also, the fraction unbound was 0.08.

Regarding `CC(=O)O[C@H]1C[C@@]2(C)[C@@H](C[C@@H](O)[C@H]3[C@]4(C)CC[C@@H](O)[C@@H](C)[C@@H]4CC[C@]32C)/C1=C(/CCC=C(C)C)C(=O)O`, the MRT was 10.6 h, the Vd is 0.23 L/kg, the clearance was 0.35 mL/min/kg and the half-life was 9.8 h. Further, the free fraction (fraction unbound) was 0.02.

`CC(=O)NC(CSSCC(N)C(=O)O)C(=O)NC(C)C(=O)NC(CCCNC(=N)N)C(=O)NC(CCCNC(=N)N)C(=O)NC(CCCNC(=N)N)C(=O)NC(C)C(=O)NC(CCCNC(=N)N)C(N)=O` (stereo not drawn): the mean residence time MRT is 19.9 h, the Vd is 1.98 L/kg and the clearance was 1.67 mL/min/kg.

`O=C(O)c1cc(/N=N/c2ccc(S(=O)(=O)Nc3ccccn3)cc2)ccc1O`: the MRT was 6.8 h, the volume of distribution (Vd) was 0.11 L/kg, the clearance is 0.26 mL/min/kg and the half-life was 7.6 h. The unbound share (fraction unbound) is 0.004.

Consider `CCON=C(C(=O)NC1C(=O)N2C(C(=O)[O-])=C(Sc3nc(-c4cc[n+](C)cc4)cs3)CS[C@H]12)c1nsc(NP(=O)(O)O)n1` (stereo partly drawn), for which the MRT was 0.11 h, the Vd is 0.53 L/kg, the clearance was 83.6 mL/min/kg and the half-life was 0.09 h. Moreover, the free fraction (fraction unbound) was 0.8.

With `Cn1nnc(-c2ccc(-c3ccc(N4C[C@H](CO)OC4=O)cc3F)cn2)n1`, the mean residence time (MRT) was 12.6 h, the distribution volume (Vd) was 0.91 L/kg, the clearance was 1.19 mL/min/kg and the half-life is 10.2 h. The free fraction (fraction unbound) is 0.11.

For `CC[N+](CC)(CC)CCOc1cccc(OCC[N+](CC)(CC)CC)c1OCC[N+](CC)(CC)CC`, the mean residence time (MRT) is 2.98 h, the Vd was 0.27 L/kg, the clearance is 1.51 mL/min/kg and the half-life was 2.52 h.

As for `OCCN1CCN(CC/C=C2/c3ccccc3Sc3ccc(C(F)(F)F)cc32)CC1`, the clearance is 4.14 mL/min/kg and the half-life is 34.2 h.

Regarding `CC(S)C(=O)NCC(=O)O` (stereo not drawn), the MRT is 15.7 h, the Vd was 1.39 L/kg, the clearance was 1.48 mL/min/kg and the half-life was 55 h. The fraction unbound was 0.45.

For `CC(c1ccccn1)c1c(CCN(C)C)sc2ccccc12` (stereo not drawn), the mean residence time (MRT) is 6.8 h, the Vd was 1.83 L/kg, the clearance was 5.31 mL/min/kg and the half-life was 9.1 h.

On to `COc1ccc(C(=O)Nc2ccccc2CCC2CCCCN2C)cc1` (stereo not drawn), for which the MRT is 2.8 h, the Vd is 2.2 L/kg, the clearance is 13 mL/min/kg and the half-life is 2.6 h.

On to `Nc1nc(F)nc2c1ncn2[C@@H]1O[C@H](CO)[C@@H](O)[C@@H]1O`, for which the MRT is 12 h, the volume of distribution (Vd) was 2.2 L/kg, the clearance was 3.2 mL/min/kg and the half-life was 11 h. The fraction unbound was 0.76.

For the compound `Cc1onc(-c2ccccc2)c1C(=O)NC1C(=O)N2C(C(=O)O)C(C)(C)S[C@H]12` (stereo partly drawn), the mean residence time (MRT) is 0.5 h, the Vd is 0.19 L/kg, the clearance is 6.3 mL/min/kg and the half-life is 0.7 h. Besides, the fraction unbound was 0.07.

Consider `CN(C)CCCO[C@@H]1[C@H]2OC(C)(C)O[C@H]2O[C@@H]1[C@H](O)CO`, for which the MRT was 5 h, the Vd was 1.04 L/kg, the clearance was 3.48 mL/min/kg and the half-life is 4.07 h. For the same compound, the fraction unbound was 0.97.

`CO[C@@]1(NC(=O)C(C(=O)O)c2ccsc2)C(=O)N2C(C(=O)O)C(C)(C)S[C@@H]21` (stereo partly drawn): the MRT is 5.2 h, the Vd was 0.11 L/kg, the clearance is 0.34 mL/min/kg and the half-life was 4.1 h. The fraction unbound is 0.21.

As to `Cc1ccccc1OCC(O)CNCCOc1ccc(C(N)=O)cc1` (stereo not drawn), the MRT was 4.8 h, the Vd was 4 L/kg, the clearance was 14 mL/min/kg and the half-life was 2.5 h. Also, the fraction unbound was 0.089.

As for `NC(=O)CN1CC(O)CC1=O` (stereo not drawn), the mean residence time MRT was 4.9 h, the volume of distribution (Vd) was 0.55 L/kg, the clearance is 1.8 mL/min/kg and the half-life was 7.5 h.

Turning to `O=C(O)C1=C(C[n+]2ccc(CCS(=O)(=O)[O-])cc2)CSC2C(NC(=O)C(NC(=O)c3[nH]cnc3C(=O)O)c3ccccc3)C(=O)N12` (stereo not drawn), the mean residence time (MRT) was 2.1 h, the volume of distribution (Vd) was 0.21 L/kg, the clearance is 1.7 mL/min/kg and the half-life is 1.8 h.

Regarding `C=C1CC[C@@]2(O)[C@H]3Cc4ccc(O)c5c4[C@@]2(CCN3CC2CC2)[C@H]1O5`, the fraction unbound is 0.65.

In the case of `Cn1c(=O)c2nc[nH]c2n(C)c1=O`, the half-life was 7.2 h.

Turning to `N=C(N)NC(CS)C(=O)O` (stereo not drawn), the MRT is 1.39 h, the Vd is 0.25 L/kg, the clearance is 2.88 mL/min/kg and the half-life was 1.34 h.

Usually MRT stands for the average time that molecules of a dose stay in the body. As usually defined, the Vd is the apparent volume that relates the amount in the body to the concentration in plasma or blood. By clearance is commonly meant a measure of how efficiently the substance is removed, as volume per time. One may read the half-life as the time needed for the level to fall by half in the phase considered. In general, fraction unbound refers to free concentration divided by total concentration.
